A short description of data set [1]: In vivo pharmacokinetic characterization (abstract summary). More on the design: species or system rodents. As for the experimental part: The blood distribution, CNS disposition and pharmacokinetics of SCYX-7158 were evaluated in infected or non-infected rodents following intravenous or oral administration of compounds. Pharmacokinetics and bioavailability of SCYX-7158 were also evaluated in non-infected beagle dogs and cynomolgus monkeys. In-life phases of non-infected rodent studies were performed at Vivisource (Waltham, MA); studies in non-naïve cynomolgus monkeys were performed by SNBL USA (Everett, WA).
Male CD-1 mice (∼25 g), male Sprague-Dawley rats (∼225 g), or male cynomolgus monkeys (∼3–5 kg) were administered test article by either bolus intravenous injection (IV) or oral gavage. Animals in the IV groups received a single 2 mg/kg IV dose. Animals received oral doses of test articles as either single or twice daily doses ranging from 8 mg/kg to 50 mg/kg. All doses were administered as clear colorless solutions in either 50% (v/v) PEG 400: 20% (v/v) ethanol: 30% (v/v) carboxymethylcellulose (0.5% w/v in sterile water for injection) or 2% (v/v) ethanol: 5% (w/v) dextrose in sterile water for injection. Doses were administered in a volume of 4 mL/kg, 2 mL/kg or 1 mL/kg for mice, rats and cynomolgus monkeys, respectively. For pharmacokinetic analysis, blood samples were collected from mice via cardiac puncture under terminal anaesthesia. Serial blood samples were collected from rats via a vascular access port located in the lateral saphenous vein. Mice and rats were euthanized in a CO2 chamber before collection of terminal blood samples or brain tissue. Blood samples were collected into polypropylene tubes containing K2EDTA anticoagulant and stored on ice until centrifuged for the preparation of plasma. Plasma was stored at −70°C. Whole brains were collected following decapitation, blotted dry, placed into polypropylene containers and then immediately frozen at approximately −70°C. CSF was collected from rats via cisterna magna puncture, placed in sterile polypropylene tubes, and stored at approximately −70°C.

A short description of data set [2]: Metabolic stability in liver microsomal and S9 fractions. The class given is in vitro ADME, rodents, cynomolgus monkey and humans. Conditions: CD-1 (mouse), Sprague-Dawley (rat), beagle (dog), cynomolgus monkey, human, liver microsomes and liver S9 fractions, all species. The protocol:
Metabolic stability was evaluated using mixed gender CD-1 mouse or human liver microsomal fractions (XenoTech, Lenexa, KS). Compounds (1 µM) were incubated with microsomes (1.05 mg/mL protein) for 0, 10, 15 and 30 min at 37°C in an oxygen and humidity enriched environment in the presence of an NADPH-regenerating system. Each compound was also incubated, under the same conditions, with CD-1 mouse, Sprague-Dawley rat, beagle dog, cynomolgus monkey, and human liver S9 sub-cellular fractions (2 mg/mL protein)[23] for 0, 15, 30 and 60 min. At the end of each incubation period, the reactions were quenched with 3 volumes of ice-cold methanol. Supernatants from the incubation mixtures were analyzed for parent compound by LC-MS/MS. Metabolic competencies of microsomal and S9 fractions were confirmed using control compounds 7-ethoxycoumarin, propranolol and verapamil. Intrinsic clearance (CLint) and half-life (t½) values were determined for each compound.

A short description of data set [3]: Brain tissue binding by rapid equilibrium dialysis. The class given is in vitro ADME. To be noted: mouse brain tissue; independent of concentration. The protocol: Binding to human or mouse plasma proteins or mouse brain homogenate was determined by rapid equilibrium dialysis (RED) (Pierce, Rockford, IL) using a 48-well plate-based format according to the manufacturer's instructions. Briefly, test compound at the required concentrations was added to fresh human or mouse plasma (Bioreclamation, Liverpool, NY) or freshly prepared mouse brain homogenate. Duplicate aliquots of each sample were transferred into the sample chambers of the RED devices, and dialysis buffer (BupH PBS) was added to the buffer chambers. The plates were sealed and incubated at 37°C for 4 h. After dialysis, samples collected from the buffer and tissue chambers were treated with ice-cold methanol (3 volumes for plasma, 4 volumes for brain) to precipitate proteins. The treated samples were centrifuged for 10 min at 3×10^3 g at 15°C. The supernatants were assayed for test compound by LC-MS/MS. Calibration standards and quality control samples were prepared in matched matrix and assayed with samples. Values for unbound and bound fractions and mass balance were calculated. Concordance of binding for each batch of plasma was confirmed by assay of warfarin, imipramine and carbamezapine. Acceptance criterion for mass balance was 70–120%.
(In equilibrium dialysis only unbound substance equilibrates across the membrane.)

Data set [4] can be described thus: Aqueous solubility. The class given is physicochemical. Conditions: pH 7.4 PBS. The text has this:
Table 3 In vitro physicochemical and ADME properties of SCYX-7158. | column: Value

Data set [5] deals with >100 biochemical targets. Briefly: Array of in vitro receptor binding and enzyme inhibition assays. Conditions: test concentration 10 µM.
Data set [6] can be described thus: Metabolism in primary hepatocytes. The class given is in vitro ADME, rat or dog. To be noted: over 12 h.

Converted amounts (≈) assume the structure as drawn.

Take `CC1(C)OB(O)c2cc(NC(=O)c3ccc(F)cc3C(F)(F)F)ccc21` [SCYX-7158]: in data set [1] (male, rodents and non-human primates, plasma, read-out: elimination half-life (converted)), the half-life is 24 h. Also, in data set [1] (rodents, 25 mg/kg oral dose), the “brain AUC0–24 hr” value was more than 100000 ng·h/mL and the “brain Cmax” value was more than 10000 ng/mL. The same compound returned a half-life at 1 µM in data set [2] of more than 5.83 h. Moreover, in data set [2] (read-out: intrinsic clearance), the microsomal CLint at 1 µM was less than 5 µL/min/mg. Besides, the fubrain in data set [3] is recorded as approximately 5%. The solubility in data set [4] is 25 µM (≈ 9.18 µg/mL). For the same compound, in data set [5], the “binding to or inhibition of off-target panel” value is “did not exhibit any significant binding to, or inhibition of”. Besides, the “fraction of SCYX-7158 metabolized” value in data set [6] is reported as “less than 5%”.

The term half-life denotes how long it takes for the measured level to halve. As usually defined, the solubility is how much of the substance goes into solution per volume.
